Assay results reported in paper PMC8948676, “Dihydropyridines Potentiate ATP-Induced Currents Mediated by the Full-Length Human P2X5 Receptor” (Molecules, 2022).

Key:
[1] = target: T1, full-length human P2X5 receptor (hP2X5^FL) (Homo sapiens, UniProt Q93086, F216L/F232L); test: cell-based; design: gene P2RX5
[2] = target: T1, full-length human P2X5 receptor (hP2X5^FL); test: two-microelectrode voltage clamp, Xenopus laevis oocytes (agonist concentration-response); assay type: cell-based; design: gene P2RX5; His-hP2X5^FL, full-length 444 residues including exon 10 (residues 328–349), N-terminal hexahistidine tag; homotrimer
[3] = target: T1, full-length human P2X5 receptor (hP2X5^FL); test: two-microelectrode voltage clamp, Xenopus laevis oocytes; potentiation of ATP-induced current at […]; assay type: cell-based; design: gene P2RX5; His-hP2X5^FL, full-length 444 residues including exon 10 (residues 328–349), N-terminal hexahistidine tag; homotrimer

T1 sequence (Q93086 whole entry F216L/F232L, the tested form may be a part): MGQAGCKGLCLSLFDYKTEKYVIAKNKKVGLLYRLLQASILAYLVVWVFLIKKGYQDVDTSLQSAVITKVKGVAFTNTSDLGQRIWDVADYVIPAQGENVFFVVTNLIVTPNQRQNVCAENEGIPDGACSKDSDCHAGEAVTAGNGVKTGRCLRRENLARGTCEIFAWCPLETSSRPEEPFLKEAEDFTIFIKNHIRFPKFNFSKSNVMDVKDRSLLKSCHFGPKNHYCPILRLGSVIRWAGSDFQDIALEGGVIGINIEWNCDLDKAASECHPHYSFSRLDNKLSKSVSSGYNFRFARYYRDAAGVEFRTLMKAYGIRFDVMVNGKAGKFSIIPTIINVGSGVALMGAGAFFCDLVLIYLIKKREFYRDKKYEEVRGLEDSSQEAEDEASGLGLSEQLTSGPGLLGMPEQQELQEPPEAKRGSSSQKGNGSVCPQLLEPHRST

For Nc1ncnc2c1ncn2[C@@H]1O[C@H](COP(=O)(O)OP(=O)(O)OP(=O)(O)O)[C@@H](O)[C@H]1O [ATP], the EC50 [1] was ~39 µM.

Nc1ncnc2c1ncn2[C@@H]1O[C@H](COP(=O)(O)OP(=O)(O)OP(=O)(O)O)[C@@H](OC(=O)c2ccc(C(=O)c3ccccc3)cc2)[C@H]1O [BzATP] was tested, and the “two-microelectrode voltage clamp, Xenopus laevis oocytes (agonist concentration-” value [2] was “BzATP, displayed a higher affinity for hP2X5^FL than ATP but a lower efficacy”.

In the case of COC(=O)C1=C(C)NC(C)=C(C(=O)OC(C)C)C1c1cccc2nonc12 (stereo not drawn) [isradipine], the “two-microelectrode voltage clamp, Xenopus laevis oocytes; potentiation of ATP-in” value [3] is reported as “In contrast, isradipine and nimodipine stimulated the ATP-induced currents”.
